Test results: patent publication US20060115571A1, “Functional foods/drinks containing antiallergic component” (priority 2002, published 2006)

Test: stability during the process of preparing the hard candy
Conditions: powder of an extract of "Benifuki" made into hard candy
Description: Using a powder of an extract of “Benifuki”, a hard candy was prepared. Methylcatechin was contained at 2.7% in the powder of the extract, so one hard candy was designed to contain 3 mg of methylcatechin.

## O=C1C[C@@H]2OCC=C3CN4CC[C@]56c7ccccc7N1[C@H]5[C@H]2[C@H]3C[C@H]46 [Strychnine, strychnine]
  stability during the process of preparing the hard candy: stable
